Where “and” joins values, the source holds several entries; their conditions need not be identical. Equal entries are not always repeated. Where two headings read alike, the source gives them in different places. Marks after values point to notes of the source that are not given here. Numbered stars: 1 amine (or outer) side, 2 acyl side, 3 side chain; on linkers, the order of the positions; unused ones are H or OH. Bridge positions count the residues as written; N and C are the ends. Square brackets hold non-standard residues; d marks the D form. Ends that are not written are not given here. Peptide text beside a SMILES is read from it. β3hW = N[C@H](CC(=O)O)Cc1c[nH]c2ccccc12; X1 = O=C([C@H]1CNC[C@@H]1N[*:1])[*:2]; β3hE = N[C@@H](CCC(=O)O)CC(=O)O; β3hN = NC(=O)C[C@H](N)CC(=O)O; β3hL = CC(C)C[C@H](N)CC(=O)O; Nle = CCCC[C@H](N)C(=O)O
What was measured:
homodimeric VEGF165 = target: T1, homodimeric VEGF165 (Homo sapiens, UniProt P15692); experiment: competition fluorescence polarization; assay type: binding
T1 sequence (P15692 1-191 isoform P15692-4): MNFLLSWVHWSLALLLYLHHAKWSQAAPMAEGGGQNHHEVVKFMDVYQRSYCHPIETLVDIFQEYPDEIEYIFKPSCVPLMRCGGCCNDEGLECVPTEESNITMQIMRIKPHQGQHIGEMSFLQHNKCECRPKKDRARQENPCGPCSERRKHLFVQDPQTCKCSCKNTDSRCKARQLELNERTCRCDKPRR

[1] = tested on: human umbilical vein endothelial cells (HUVECs); experiment: VEGF-induced HUVEC proliferation; conditions: 10 ng/mL VEGF; tested above and below the measured Ki
proteinase K = proteinase K (Parengyodontium album, UniProt P06873); experiment: proteinase K degradation; conditions: for stability to proteinase K relative to v114*: ratio of t1/2 to that of v114*, standard conditions
Chain of proteinase K (P06873 106-384): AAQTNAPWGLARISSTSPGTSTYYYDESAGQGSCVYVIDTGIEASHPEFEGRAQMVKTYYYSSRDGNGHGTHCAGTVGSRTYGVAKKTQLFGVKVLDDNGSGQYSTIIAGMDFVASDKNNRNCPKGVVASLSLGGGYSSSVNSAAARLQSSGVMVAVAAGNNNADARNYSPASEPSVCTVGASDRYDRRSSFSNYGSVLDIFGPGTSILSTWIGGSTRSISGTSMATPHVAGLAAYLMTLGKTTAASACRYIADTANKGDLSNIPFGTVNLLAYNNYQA

toxicity control studies = conditions: at the inhibitory concentrations
[2] = tested on: human umbilical vein endothelial cells (HUVECs); conditions: cited from earlier work
v114 = target: T2, v114 (disulfide 5-15); experiment: competition fluorescence polarization
T2 chain: VEPNCDIHVMWEWECFERL

v107 = experiment: competition

Molecule	loss of affinity for VEGF (higher Ki) relative to v114* (homodimeric VEGF165; ratio of Ki to Ki of v114*)	inhibition of VEGF-stimulated HUVEC proliferation, potency in words [1]	stability to proteinase K relative to v114* (proteinase K; proteinase K) [fold]	toxicity (toxicity control studies)	also measured
CCCC[C@@H]1NC(=O)[C@H](C(C)C)NC(=O)[C@H](Cc2c[nH]cn2)NC(=O)[C@H]([C@@H](C)CC)NC(=O)[C@H](CC(=O)O)NC(=O)[C@@H](NC(=O)[C@H](CC(N)=O)NC(=O)[C@@H]2CCCN2C(=O)C[C@H](CCC(=O)O)NC(=O)[C@@H](N)C(C)C)CSSC[C@@H](C(=O)N[C@@H](Cc2ccccc2)C(=O)N[C@H]2CNC[C@@H]2C(=O)N[C@@H](CCCNC(=N)N)C(=O)N[C@H](CC(N)=O)CC(C)C)NC(=O)[C@H](CCC(=O)O)NC(=O)[C@H](Cc2c[nH]c3ccccc23)NC(=O)C[C@H](CCC(=O)O)NC(=O)[C@H](Cc2c[nH]c3ccccc23)NC1=O [compound 2] (H-V[β3hE]PNCDIHV[Nle]W[β3hE]WECF[X1]R[β3hL]-NH2; disulfide 5-15; N-terminus and C-terminus assumed)	12 fold				
CCCC[C@@H]1NC(=O)[C@H](C(C)C)NC(=O)[C@H](Cc2c[nH]cn2)NC(=O)[C@H]([C@@H](C)CC)NC(=O)[C@H](CC(=O)O)NC(=O)[C@@H](NC(=O)C[C@H](CC(N)=O)NC(=O)[C@@H]2CCCN2C(=O)C[C@H](CCC(=O)O)NC(=O)[C@@H](N)C(C)C)CSSC[C@@H](C(=O)N[C@@H](Cc2ccccc2)C(=O)N[C@H]2CNC[C@@H]2C(=O)N[C@@H](CCCNC(=N)N)C(=O)N[C@H](CC(N)=O)CC(C)C)NC(=O)[C@H](CCC(=O)O)NC(=O)[C@H](Cc2c[nH]c3ccccc23)NC(=O)C[C@H](CCC(=O)O)NC(=O)[C@H](Cc2c[nH]c3ccccc23)NC1=O [compound 3] (H-V[β3hE]P[β3hN]CDIHV[Nle]W[β3hE]WECF[X1]R[β3hL]-NH2; disulfide 5-15; N-terminus and C-terminus assumed)	27 fold and ~ 27 fold	less potent than v114*	15	not toxic	principal cleavage site (proteinase K; proteinase K, mass spectroscopic analysis): between ^nL10 and W11
CCCC[C@@H]1NC(=O)[C@H](C(C)C)NC(=O)[C@H](Cc2c[nH]cn2)NC(=O)[C@H]([C@@H](C)CC)NC(=O)[C@H](CC(=O)O)NC(=O)[C@@H](NC(=O)C[C@H](CC(N)=O)NC(=O)[C@@H]2CCCN2C(=O)C[C@H](CCC(=O)O)NC(=O)[C@@H](N)C(C)C)CSSC[C@@H](C(=O)N[C@@H](Cc2ccccc2)C(=O)N[C@H]2CNC[C@@H]2C(=O)N[C@@H](CCCNC(=N)N)C(=O)N[C@H](CC(N)=O)CC(C)C)NC(=O)[C@H](CCC(=O)O)NC(=O)[C@H](Cc2c[nH]c3ccccc23)NC(=O)C[C@H](CCC(=O)O)NC(=O)C[C@H](Cc2c[nH]c3ccccc23)NC1=O [compound 4] (H-V[β3hE]P[β3hN]CDIHV[Nle][β3hW][β3hE]WECF[X1]R[β3hL]-NH2; disulfide 5-15; N-terminus and C-terminus assumed)		less potent than v114*	~190	not toxic	resistance to proteolysis relative to 3 (proteinase K): > 10 fold; affinity for VEGF lower than that of 3 (homodimeric VEGF165): ~ 3 fold; loss of affinity for VEGF (higher Ki) relative to v114* (homodimeric VEGF165): ~ 77 fold
CC[C@H](C)[C@@H]1NC(=O)[C@H](CC(=O)O)NC(=O)[C@@H](NC(=O)[C@H](CC(N)=O)NC(=O)[C@@H]2CCCN2C(=O)[C@H](CCC(=O)O)NC(=O)[C@@H](N)C(C)C)CSSC[C@@H](C(=O)N[C@@H](Cc2ccccc2)C(=O)N[C@@H](CCC(=O)O)C(=O)N[C@@H](CCCNC(=N)N)C(=O)N[C@@H](CC(C)C)C(N)=O)NC(=O)[C@H](CCC(=O)O)NC(=O)[C@H](Cc2c[nH]c3ccccc23)NC(=O)[C@H](CCC(=O)O)NC(=O)[C@H](Cc2c[nH]c3ccccc23)NC(=O)[C@H](CCSC)NC(=O)[C@H](C(C)C)NC(=O)[C@H](Cc2c[nH]cn2)NC1=O [v114] (H-VEPNCDIHVMWEWECFERL-NH2; disulfide 5-15; N-terminus and C-terminus assumed)					inhibition of VEGF-induced HUVEC proliferation [2]: inhibits
VEGF165 VEGF165 (protein) APMAEGGGQNHHEVVKFMDVYQRSYCHPIETLVDIFQEYPDEIEYIFKPSCVPLMRCGGCCNDEGLECVPTEESNITMQIMRIKPHQGQHIGEMSFLQHNKCECRPKKDRARQEKKSVRGKGKGQKRKRKKSRYKSWSVPCGPCSERRKHLFVQDPQTCKCSCKNTDSRCKARQLELNERTCRCDKPRR					Ki (v114): 70 nM; Ki (v107): 600 nM
